Entries after “also recorded” stand apart in the source; their conditions may differ. Like-named read-outs stand apart in the source and are kept apart here.

The target of the assay is T1, Human leukocyte elastase (HLE) (Homo sapiens, UniProt P08246).
T1 construct: purchased Elastin Products, St. Louis, Mo
T1 sequence (P08246 30-267): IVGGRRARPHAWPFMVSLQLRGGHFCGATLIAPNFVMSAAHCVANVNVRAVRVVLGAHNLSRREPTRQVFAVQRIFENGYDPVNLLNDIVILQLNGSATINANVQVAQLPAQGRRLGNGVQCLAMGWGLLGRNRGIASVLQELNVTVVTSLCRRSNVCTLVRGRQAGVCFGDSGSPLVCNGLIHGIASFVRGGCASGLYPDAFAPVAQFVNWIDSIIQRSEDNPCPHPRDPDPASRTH
Nature of the assay: Spectrophotometric assay of HLE inactivation (in vitro). In kind it is biochemical. As for the experimental part:
The appropriate amount of inhibitor in acetonitrile was mixed with PPE in phosphate buffer solution and placed in a constant temperature bath. Aliquots were withdrawn at different time intervals and transferred to a cuvette containing 100 uL of substrate, 140 uL of acetonitrile, and 2 mL of phosphate buffer, pH 6.5. After incubating for 30 seconds, the absorbance change was monitored for two minutes at 347.5 nm. […] Controlled reactions for 100% PPE activity were run in the presence of acetonitrile. A similar procedure was followed for HLE.
The reaction of an irreversible inhibitor with PPE and HLE may be illustrated by the scheme shown below: [drawing 5] where EI is the noncovalently bound enzyme-inactivator complex and E-I is the final product with the inhibitor covalently bound to the enzyme. The kinetics data were analyzed according to known procedures. The apparent pseudo-first-order inactivation rate constants were determined from the slopes of semilogarithmic plots of enzymatic activity remaining versus time using the following equation: [formula] where Et /EO is the amount of active enzyme remaining after time "t".
The assay procedure used was the procedure identified relative to the tests above in Table I.
(kobsd) were determined by plotting in [E]t /[E]o vs time.

The mark [1] stands for this setting: Table V, succinimide derivatives, read-out: kobsd /[I], inhibition of leukocyte elastase.
Setting [2] is: Table VI, sulfur-containing amino acid esters, read-out: kobsd /[I], inhibition of HLE.
Setting [3] is: Table IV, derivatives of phenylalanine, read-out: kobsd /[I], inhibition of leukocyte elastase.
Setting [4] is: Table III, inactive: no inhibition at 243fold excess of inhibitor over enzyme, 10min incubation.
Where [5] appears, read: Table VI, sulfur-containing amino acid esters.
[6] abbreviates: Table II monopotassium sulfonate salts.
Where [7] appears, read: Table III, inactive: no inhibition at 243fold excess of inhibitor over enzyme, 10min incubation, read-out: kobsd /[I], inhibition of leukocyte elastase.
The mark [8] stands for this setting: Table II monopotassium sulfonate salts, read-out: k2 /Ki (HLE).

Turning to `O=C1CC(Cc2ccccc2)C(=O)N1OS(=O)(=O)c1ccc(Br)cc1` (centres unmarked), the kinact/KI under setting [1] came to 1650 M⁻¹ s⁻¹.

On to `COC(=O)[C@H](CSC)NC(=O)S(=O)(=O)O` [Compound 5, Table VI], for which the kinact/KI under setting [2] turned out to be 1510 M⁻¹ s⁻¹.

As for `CCCCS(=O)(=O)ON1C(=O)CC(Cc2ccccc2)C1=O` (centres unmarked) [BENZYL, OSO2(CH2)3 CH3], the kinact/KI under setting [1] turned out to be 1680 M⁻¹ s⁻¹. For `COC(=O)C(Cc1cccc(F)c1)NC(=O)n1ccnc1` (centres unmarked) [Compound 33], the kinact/KI under setting [3] amounted to 318 M⁻¹ s⁻¹. With `O=C(NCc1cccc(C(F)(F)F)c1)S(=O)(=O)O` [Compound 13, Table III], under setting [4], the “kobsd /[I], inhibition of leukocyte elastase” value was “inactive”. As to `COC(=O)[C@H](CC[S+](C)[O-])NC(=O)S(=O)(=O)O` (some centres unmarked) [Compound 2, Table VI], the “Inhibition of HLE (in words)” value is “inactive”. Moreover, the “kobsd /[I], inhibition of HLE” value under setting [5] is “inactive”. On to `COC(=O)CSC[C@H](NC(=O)S(=O)(=O)O)C(=O)OC` [Compound 8, Table VI], for which, under setting [2], the kinact/KI is 17 M⁻¹ s⁻¹.

For the compound `COC(=O)CNC(=O)S(=O)(=O)O` [Compound 1, Table II], the “Inhibition of HLE (in words)” value was “devoid of any inhibitory activity”. In addition, the “k2 /Ki (HLE)” value under setting [6] was “inactive”.

With `O=C(NCCc1ccccc1)n1ccnc1` [Compound 18], the kinact/KI under setting [7] turned out to be 35 M⁻¹ s⁻¹. In the case of `O=C(Nc1ccc(C(F)(F)F)cc1)S(=O)(=O)O` [Compound 7, Table III], the “kobsd /[I], inhibition of leukocyte elastase” value under setting [4] was “inactive”.

As to `COC(=O)[C@H](Cc1ccccc1)NC(=O)S(=O)(=O)O` [Compound 27], the kinact/KI under setting [3] stood at 550 M⁻¹ s⁻¹. Turning to `COC(=O)[C@H](CC(C)C)NC(=O)S(=O)(=O)O` [Compound 7, Table II], the kinact/KI under setting [8] was found to be 260 M⁻¹ s⁻¹. Moreover, the “Inhibition of HLE (in words)” value (listed as L-leucine sulfonate salt) is listed as “also deactivate HLE but were not as effective; also recorded: also inactivate HLE, but not as efficiently; also recorded: effective inhibitors”. With `CCCC[C@H](NC(=O)S(=O)(=O)O)C(=O)OC` [Compound 6, Table II], under setting [8], the kinact/KI is 920 M⁻¹ s⁻¹. For the same compound, the “Inhibition of HLE (in words)” value (listed as L-norleucine sulfonate salt) is “very potent inhibitors; also recorded: effective inhibitors”. Take `O=C(NCCc1cccc(F)c1)n1ccnc1` [Compound 19]: the kinact/KI under setting [7] is 38 M⁻¹ s⁻¹. Regarding `O=C(NCc1ccc(C(F)(F)F)cc1)n1ccnc1` [Compound 11, Table III], under setting [4], the “kobsd /[I], inhibition of leukocyte elastase” value is “inactive”.

Take `O=C(Nc1cccc(C(F)(F)F)c1)S(=O)(=O)O` [Compound 6, Table III]: the “kobsd /[I], inhibition of leukocyte elastase” value under setting [4] is “inactive”. Consider `COC(=O)[C@H](CCSC)NC(=O)S(=O)(=O)O` [Compound 8, Table II], for which the kinact/KI under setting [8] was determined as 260 M⁻¹ s⁻¹. Moreover, for the setting “listed as L-methionine sulfonate salt”, the “Inhibition of HLE (in words)” value is on record as “also deactivate HLE but were not as effective; also recorded: also inactivate HLE, but not as efficiently; also recorded: effective inhibitors”.

Consider `COC(=O)C(Cc1cccc(C(F)(F)F)c1)NC(=O)S(=O)(=O)O` (centres unmarked) [Compound 32], for which the kinact/KI under setting [3] was found to be 13 M⁻¹ s⁻¹. Take `COC(=O)[C@H](CSC)NC(=O)n1ccnc1` [Compound 9, Table VI]: under setting [2], the kinact/KI was found to be 4050 M⁻¹ s⁻¹.

On to `COC(=O)[C@H](CSSC[C@H](NC(=O)S(=O)(=O)O)C(=O)OC)NC(=O)S(=O)(=O)O` [Compound 7, Table VI], for which, under setting [5], the “kobsd /[I], inhibition of HLE” value is “inactive”.

Consider `O=C(NCCc1ccccc1)S(=O)(=O)O` [Compound 16], for which the kinact/KI under setting [7] was found to be 4 M⁻¹ s⁻¹.

With `COC(=O)C(Cc1cccc(C(F)(F)F)c1)NC(=O)n1ccnc1` (centres unmarked) [Compound 34], under setting [3], the kinact/KI was 1100 M⁻¹ s⁻¹. As to `CCC[C@@H](NC(=O)S(=O)(=O)O)C(=O)OC` [Compound 5, Table II], the “Inhibition of HLE (in words)” value is listed as “no inhibitory activity”. The “k2 /Ki (HLE)” value under setting [6] is “inactive”. For `CCCCCCCCS(=O)(=O)ON1C(=O)CC(Cc2ccccc2)C1=O` (centres unmarked) [BENZYL, OSO2(CH2)7 CH3], the kinact/KI under setting [1] is 1270 M⁻¹ s⁻¹. Same read-out and setting: with `Cc1ccc(S(=O)(=O)ON2C(=O)CC(Cc3ccccc3)C2=O)cc1` (centres unmarked) the figure was 1610 M⁻¹ s⁻¹. With `O=C(NCc1cccc(C(F)(F)F)c1)n1ccnc1` [Compound 15], the “kobsd /[I], inhibition of leukocyte elastase” value under setting [4] is “inactive”.

These data come from patent publication US4929736A, “Latent isocynate derivatives useful for deactivating enzymes” (Board of Trustees of the Wichita State University, priority 1986, dated 1990).
